In test [1] the target is TGFβRI kinase ALK5 (Homo sapiens (Human), UniProt P36897). The test is described as follows: Inhibition of TGFβRI kinase ALK5 activity (TGFβRI kinase assay kit, ADP-Glo). In kind it is biochemical. Conditions: ATP 50 μM; read-out: IC50 of inhibition effect on TGFβRI kinase ALK5 activity. The gist of the method: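 Kinase reaction: 2 ng/μL enzyme in Tris pH 7.5, MgCl2, BSA buffer with 50 μM ATP and 0.2 μg/μL substrate peptide, 2.5 h at 27 °C. ADP formation read by ADP-Glo luminescence over 3-fold compound dilutions; IC50 calculated from signal versus concentration.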
TGFβRI kinase ALK5, sequence (P36897 34-503): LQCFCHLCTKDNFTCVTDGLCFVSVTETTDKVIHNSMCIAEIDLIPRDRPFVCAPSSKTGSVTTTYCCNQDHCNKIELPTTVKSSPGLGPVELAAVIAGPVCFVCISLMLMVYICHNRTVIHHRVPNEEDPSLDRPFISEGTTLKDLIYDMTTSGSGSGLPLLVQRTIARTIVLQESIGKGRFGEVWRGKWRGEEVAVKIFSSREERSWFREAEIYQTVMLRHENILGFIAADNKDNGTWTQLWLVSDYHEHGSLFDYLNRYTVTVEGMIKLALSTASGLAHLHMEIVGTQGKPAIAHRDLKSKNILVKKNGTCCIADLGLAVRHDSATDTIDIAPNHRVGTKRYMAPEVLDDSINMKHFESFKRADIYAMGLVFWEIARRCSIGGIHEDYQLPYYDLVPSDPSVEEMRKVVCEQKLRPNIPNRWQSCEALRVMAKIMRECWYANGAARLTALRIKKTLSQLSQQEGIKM
In general terms: ADP-Glo first removes unused ATP, then detects ADP through luciferase.

Test [2] addresses recombinant human VEGFR2 enzyme (Homo sapiens (Human), UniProt P35968). The test is described as follows: Inhibition of VEGFR2 kinase activity (Z'-LYTE Kinase Assay Kit). It is filed as biochemical. Conditions: ATP 50 μM; read-out: IC50 of inhibition effect on VEGFR2 kinase activity. On the procedure:
The inhibition effect of VEGFR2 kinase activity in vitro was determined by the following method.
The inhibition effect of the compounds of the present invention on VEGFR2 kinase activity was determined by the following experimental method:
After reaction at 25° C. for 2 hours, 5 μL of detection reagent was added to each well. […] The IC50 values of the compounds for enzyme inhibition were calculated using Graphpad prism software based on each concentration of the compound and the corresponding signal value thereof.

pIC50: −log10 of the molar value.

recombinant human VEGFR2 enzyme, sequence (P35968 20-1356): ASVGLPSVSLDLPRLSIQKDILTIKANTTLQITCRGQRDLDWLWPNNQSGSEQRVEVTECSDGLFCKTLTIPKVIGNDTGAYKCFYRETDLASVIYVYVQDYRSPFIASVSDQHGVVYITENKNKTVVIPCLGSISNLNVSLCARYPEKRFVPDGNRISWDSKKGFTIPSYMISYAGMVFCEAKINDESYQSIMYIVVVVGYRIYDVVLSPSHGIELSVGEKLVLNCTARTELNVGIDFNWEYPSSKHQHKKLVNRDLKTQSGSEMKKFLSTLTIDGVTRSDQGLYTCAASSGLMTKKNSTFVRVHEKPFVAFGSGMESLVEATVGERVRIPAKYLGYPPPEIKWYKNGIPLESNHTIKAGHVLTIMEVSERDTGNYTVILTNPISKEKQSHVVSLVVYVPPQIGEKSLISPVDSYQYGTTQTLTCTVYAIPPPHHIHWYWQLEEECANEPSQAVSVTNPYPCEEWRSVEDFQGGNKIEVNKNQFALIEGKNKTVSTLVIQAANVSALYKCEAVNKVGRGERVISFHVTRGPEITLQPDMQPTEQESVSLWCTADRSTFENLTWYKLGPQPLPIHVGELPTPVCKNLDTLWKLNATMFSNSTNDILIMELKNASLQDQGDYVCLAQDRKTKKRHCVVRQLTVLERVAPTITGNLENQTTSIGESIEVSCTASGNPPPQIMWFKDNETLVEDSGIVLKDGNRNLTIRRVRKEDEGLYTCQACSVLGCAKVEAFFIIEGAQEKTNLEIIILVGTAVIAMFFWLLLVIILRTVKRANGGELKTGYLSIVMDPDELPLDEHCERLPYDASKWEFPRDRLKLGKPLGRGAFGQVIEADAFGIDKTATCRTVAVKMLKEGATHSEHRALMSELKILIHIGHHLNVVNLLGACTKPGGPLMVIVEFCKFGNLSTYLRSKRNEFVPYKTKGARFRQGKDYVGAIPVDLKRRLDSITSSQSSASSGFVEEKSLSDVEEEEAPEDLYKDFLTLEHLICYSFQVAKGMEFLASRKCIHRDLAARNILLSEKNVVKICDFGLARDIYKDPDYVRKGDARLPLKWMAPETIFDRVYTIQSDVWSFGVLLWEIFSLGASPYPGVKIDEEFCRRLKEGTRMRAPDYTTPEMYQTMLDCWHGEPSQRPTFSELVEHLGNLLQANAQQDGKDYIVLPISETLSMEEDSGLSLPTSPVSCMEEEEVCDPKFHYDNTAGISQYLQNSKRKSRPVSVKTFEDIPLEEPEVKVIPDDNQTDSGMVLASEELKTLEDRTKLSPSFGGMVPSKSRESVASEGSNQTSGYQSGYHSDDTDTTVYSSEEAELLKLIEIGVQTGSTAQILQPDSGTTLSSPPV

The term pIC50 denotes −log10 of the IC50, conventionally taken in molar units. On to `Cc1cccc(-c2nc3n(c2-c2ccnc(-c4ccc(S(C)(=O)=O)cc4)c2)[C@H]2CC[C@@H]3C2)n1` [Example 3-1, (5S,8R)-2-(6-Methylpyridin-2-yl)-3-(2-(4-(methylsulfonyl)phenyl)pyridin-4-yl)-5,6,7,8-tetrahydro-5,8-methanoimidazo[1,2-a]pyridine], for which the negative logarithm of the IC50 (pIC50) is 8.40 in test [1] and 5.54 in test [2].

With `Cc1cccc(-c2nc3n(c2-c2ccc4nnc(C(N)=O)n4c2)[C@H]2CC[C@@H]3C2)n1` [Example 2-1, 6-((5S,8R)-2-(6-Methylpyridin-2-yl)-5,6,7,8-tetrahydro-5,8-methanoimidazo[1,2-a]pyridin-3-yl)[1,2,4]triazolo[4,3-a]pyridine-3-carboxamide], the figures for the pIC50 in test [1] and in test [2] were 8.52 and 5.94, respectively.

Turning to `Cc1cccc(-c2nc3n(c2-c2ccc4nccc(C(N)=O)c4c2)[C@H]2CC[C@@H]3C2)n1` [Example 1-1, 6-((5S,8R)-2-(6-Methylpyridin-2-yl)-5,6,7,8-tetrahydro-5,8-methanoimidazo[1,2-a]pyridin-3-yl)quinoline-4-carboxamide], the values for the pIC50 in test [1] and in test [2] were 8.05 and 5.52, respectively.

In the case of `NC(=O)c1ccnc2ccc(-c3c(-c4ccc(F)cn4)nc4n3[C@H]3CC[C@@H]4C3)cc12` [Example 39-1, 6-((5S,8R)-2-(5-Fluoropyridin-2-yl)-5,6,7,8-tetrahydro-5,8-methanoimidazo[1,2-a]pyridin-3-yl)quinoline-4-carboxamide], the negative logarithm of the IC50 (pIC50) was 7.59 in test [1] and 5.20 in test [2].

(Values after patent publication US10906905B2, “Five-membered heteroaryl ring bridged ring derivative, preparation method therefor and medical use thereof” (Jiangsu Hengrui Medicine Co., Ltd., priority 2016, dated 2021).)
